These results are taken from the supplement of paper PMC10307832.

Common to all, as to experiment: relative viability (nuclei count vs DMSO), 5 days (fraction); higher = more cells survive
Compound in the test “MK-8033 + Tozasertib”: Cn1cc(-c2cnc3ccc4ccc(CS(=O)(=O)NCc5ccccn5)cc4c(=O)c3c2)cn1 [MK-8033] + Cc1cc(Nc2cc(N3CCN(C)CC3)nc(Sc3ccc(NC(=O)C4CC4)cc3)n2)n[nH]1 [Tozasertib] (partner 0.1 µM)
The procedure, abridged: (§1)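 Lung cancer cell lines in 1536-well plates were dosed by pin tool the day after seeding, either with one drug alone or with a fixed anchor-drug dose plus five library-drug doses (not always all listed) in √10 steps. After 5 days, cells were fixed and their nuclei stained in one step (final 0.05% Triton X-100, 1% formaldehyde, 1 ug/ml Hoechst), then counted on 4× images. Relative viability is the nuclei count in treated wells divided by that in vehicle wells. Values are medians of duplicate plates.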

Compound in the test “RU-SKI 43 + Pemetrexed”: CC[C@@H](C)CNCC(=O)N1CCC2=C([C@@H]1COC3=CC=CC(=C3)C)C=CS2 [RU-SKI 43] + Nc1nc2[nH]cc(CCc3ccc(C(=O)N[C@@H](CCC(=O)O)C(=O)O)cc3)c2c(=O)[nH]1 [Pemetrexed] (partner 0.2 µM)
The procedure, abridged: as §1

Compound in the test “RU-SKI 43 + Lapatinib”: CC[C@@H](C)CNCC(=O)N1CCC2=C([C@@H]1COC3=CC=CC(=C3)C)C=CS2 [RU-SKI 43] + CS(=O)(=O)CCNCc1ccc(-c2ccc3ncnc(Nc4ccc(OCc5cccc(F)c5)c(Cl)c4)c3c2)o1 [Lapatinib] (partner 2 µM)
The procedure, abridged: as §1

Compound in the test “Irinotecan + Trametinib”: CCc1c2c(nc3ccc(OC(=O)N4CCC(N5CCCCC5)CC4)cc13)-c1cc3c(c(=O)n1C2)COC(=O)[C@]3(O)CC [Irinotecan] + CC(=O)Nc1cccc(-n2c(=O)n(C3CC3)c(=O)c3c(Nc4ccc(I)cc4F)n(C)c(=O)c(C)c32)c1 [Trametinib] (partner 0.02 µM)
The procedure, abridged: as §1

UMC-11: the relative viability with MK-8033 + Tozasertib (first compound 0.02 µM) was 0.201; with MK-8033 + Tozasertib (first compound 0.2 µM), 0.193; with MK-8033 + Tozasertib (first compound 0.6325 µM) it was 0.205; with MK-8033 + Tozasertib (first compound 2 µM) it was 0.205; with RU-SKI 43 + Pemetrexed (first compound 0.1 µM), 0.871; in the test with RU-SKI 43 + Pemetrexed (first compound 0.3162 µM) it was 0.951. Further, the relative viability with RU-SKI 43 + Pemetrexed (first compound 1 µM) was 0.91; with RU-SKI 43 + Pemetrexed (first compound 3.162 µM), 0.824; with RU-SKI 43 + Pemetrexed (first compound 10 µM), 0.837; with RU-SKI 43 + Lapatinib (first compound 0.1 µM), 1.05; in the test with RU-SKI 43 + Lapatinib (first compound 0.3162 µM), 1.01; with RU-SKI 43 + Lapatinib (first compound 1 µM), 1.48. The relative viability with RU-SKI 43 + Lapatinib (first compound 3.162 µM) stood at 0.918; in the test with RU-SKI 43 + Lapatinib (first compound 10 µM), 0.764; with Irinotecan + Trametinib (first compound 0.6325 µM), 0.32; with Irinotecan + Trametinib (first compound 2 µM), 0.539; in the test with Irinotecan + Trametinib (first compound 6.325 µM), 0.29; in the test with Irinotecan + Trametinib (first compound 20 µM) it was 0.216.
